In patent US11998539B2, “Substituted aminoquinolones as DGKalpha inhibitors for immune activation” (Bayer Aktiengesellschaft, priority 2019, dated 2024):

molecular target: DGKα (Homo sapiens (Human), UniProt P23743); assay: Human DGKα kinase activity inhibition assay (ADP-Glo); format: biochemical; details: recombinant full-length human DGKα, 55 μM ATP, 7 μM 1,2-dioleoyl-sn-glycerol, read-out: IC50 values of examples in in vitro human DGKa kinase activity inhibition assays
Experimental: Human DGKα Kinase Activity Inhibition Assay
Human DGKα inhibitory activity of compounds of the present invention was quantified employing the human DGKα kinase activity assay as described in the following paragraphs. In essence, the enzyme activity was measured by quantification of the adenosine-di-phosphate (ADP) generated as a co-product of the enzyme reaction via the “ADP-Glo™ Kinase Assay” kit from the company Promega. This detection system works as follows: In a first step the ATP not consumed in the kinase reaction is quantitatively converted to cAMP employing an adenylate cyclase (“ADP-Glo-reagent”), then the adenylate cyclase is stopped and the ADP generated in the kinase reaction converted to ATP, which subsequently generates in a luciferase-based reaction a glow-luminescence signal (“Kinase Detection Reagent”).
C-terminally FLAG-tagged, recombinant full-length human DGKα (expressed in baculovirus infected insect cells, purified using anti-Flag pulldown and size exclusion chromatography as described below, DGKa_hu_1) was used as enzyme. As substrate for the kinase 1,2-dioleoyl-sn-glycerol, reconstituted in octyl-β-D-glucopyranoside micelles, was used. […] Then 35 volumes of 50 mM MOPS buffer (pH 7.4) were added to yield a solution of 0.28 mM 1,2 dioleoyl-sn-glycerol and 200 mM […], which was aliquoted, flash-frozen in liquid nitrogen, and stored at −20° C. until use.
For the assay 50 nl of a 100-fold concentrated solution of the test compound in dimethyl sulfoxide (DMSO, Sigma) was pipetted into either a white 1536-well or a white low-volume 384-well microtiter plate (both Greiner Bio-One, Frickenhausen, Germany).

DGKα, sequence (P23743 other isoform, or with tags, fused parts or gaps): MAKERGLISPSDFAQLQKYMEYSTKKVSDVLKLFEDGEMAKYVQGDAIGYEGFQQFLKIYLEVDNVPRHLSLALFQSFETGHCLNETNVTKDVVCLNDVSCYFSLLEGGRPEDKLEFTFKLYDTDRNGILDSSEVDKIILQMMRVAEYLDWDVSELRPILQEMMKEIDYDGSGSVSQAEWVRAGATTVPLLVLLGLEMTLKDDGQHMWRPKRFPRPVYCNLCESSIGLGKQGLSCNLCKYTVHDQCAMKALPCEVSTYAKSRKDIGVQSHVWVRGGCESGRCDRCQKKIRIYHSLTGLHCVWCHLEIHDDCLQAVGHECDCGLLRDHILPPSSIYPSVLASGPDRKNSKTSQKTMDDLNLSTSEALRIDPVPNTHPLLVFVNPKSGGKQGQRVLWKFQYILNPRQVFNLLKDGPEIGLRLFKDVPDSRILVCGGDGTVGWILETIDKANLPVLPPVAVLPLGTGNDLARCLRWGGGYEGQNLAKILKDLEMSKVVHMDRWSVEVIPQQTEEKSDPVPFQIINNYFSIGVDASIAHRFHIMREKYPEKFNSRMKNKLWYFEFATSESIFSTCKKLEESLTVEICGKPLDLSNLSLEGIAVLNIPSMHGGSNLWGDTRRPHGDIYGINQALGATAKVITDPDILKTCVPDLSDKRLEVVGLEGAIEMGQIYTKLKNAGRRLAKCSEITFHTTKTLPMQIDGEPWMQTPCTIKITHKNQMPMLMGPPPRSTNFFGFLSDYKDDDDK

Structure (SMILES) | IC50
Cn1c(=O)c(C#N)c(N2CCC(C)(c3ccccc3)CC2)c2ccccc21 [Example 58, 1-methyl-4-(4-methyl-4-phenylpipehdin-1-yl)-2-oxo-1,2-dihydroquinoline-3-carbonitrile] | 2.6 nM
Cn1c(=O)c(C#N)c(N2CCC(c3ccc(N4CCCC4=O)cc3)CC2)c2ccccc21 [Example 59] | 23 nM
Cn1c(=O)c(C#N)c(N2CCC(c3ccccc3F)CC2)c2ccccc21 [Example 60, 4-[4-(2-fluorophenyl)piperidin-1-yl]-1-methyl-2-oxo-1,2-dihydroquinoline-3-carbonitrile] | 33 nM
Cn1c(=O)c(C#N)c(N2CCC(c3ccc(C(F)(F)F)cc3)CC2)c2ccccc21 [Example 61, 1-methyl-2-oxo-4-{4-[4-(trifluoromethyl)phenyl]piperidin-1-yl}-1,2-dihydroquinoline-3-carbonitrile] | 37 nM
Cn1c(=O)c(C#N)c(N2CCC(c3cccc(F)c3)CC2)c2ccccc21 [Example 62, 4-[4-(3-fluorophenyl)piperidin-1-yl]-1-methyl-2-oxo-1,2-dihydroquinoline-3-carbonitrile] | 38 nM
Cn1c(=O)c(C#N)c(N2CCC(c3cccc(N4CCOCC4)c3)CC2)c2ccccc21 [Example 63] | 39 nM
Cc1c(C#N)cccc1C1CCN(c2c(C#N)c(=O)n(C)c3ccccc23)CC1 [Example 64, 4-[4-(3-cyano-2-methylphenyl)piperidin-1-yl]-1-methyl-2-oxo-1,2-dihydroquinoline-3-carbonitrile] | 73 nM
Cn1c(=O)c(C#N)c(N2CCC(c3ccc(S(C)(=O)=O)cc3)CC2)c2ccccc21 [Example 65, 4-{4-[4-(methanesulfonyl)phenyl]piperidin-1-yl}-1-methyl-2-oxo-1,2-dihydroquinoline-3-carbonitrile] | 74 nM
CN1CCN(c2ccc(C3CCN(c4c(C#N)c(=O)n(C)c5ccccc45)CC3)cc2)C(=O)C1 [Example 66] | 78 nM
Cn1c(=O)c(C#N)c(N2CCC(c3cccc(NS(=O)(=O)c4ccccc4)c3)CC2)c2ccccc21 [Example 68, N-{3-[1-(3-cyano-1-methyl-2-oxo-1,2-dihydroquinolin-4-yl)piperidin-4-yl]phenyl}benzenesulfonamide] | 99 nM
Cn1c(=O)c(C#N)c(N2CCC(c3cccc(N=S(C)(C)=O)c3)CC2)c2ccccc21 [Example 69, 4-[4-(3-{[dimethyl(oxo)-A6-sulfanylidene]amino}phenyl)piperidin-1-yl]-1-methyl-2-oxo-1,2-dihydroquinoline-3-carbonitrile] | 105 nM
Cn1c(=O)c(C#N)c(N2CCC(c3cccc4scnc34)CC2)c2ccccc21 [Example 71, 4-[4-(1,3-benzothiazol-4-yl)piperidin-1-yl]-1-methyl-2-oxo-1,2-dihydroquinoline-3-carbonitrile] | 23 nM
Cn1cc(C(=O)C(F)(F)F)c2cc(C3CCN(c4c(C#N)c(=O)n(C)c5ccccc45)CC3)ccc21 [Example 72, 1-methyl-4-{4-[1-methyl-3-(trifluoroacetyl)-1H-indol-5-yl]piperidin-1-yl}-2-oxo-1,2-dihydroquinoline-3-carbonitrile] | 30 nM
Cn1c(=O)c(C#N)c(N2CCC(c3cccc4ccoc34)CC2)c2ccccc21 [Example 73] | 33 nM
Cn1c(=O)c(C#N)c(N2CCC(c3ccc4ccncc4c3)CC2)c2ccccc21 [Example 74] | 48 nM
Cn1c(=O)c(C#N)c(N2CCC(c3cccc4ncsc34)CC2)c2ccccc21 [Example 75, 4-[4-(1,3-benzothiazol-7-yl)piperidin-1-yl]-1-methyl-2-oxo-1,2-dihydroquinoline-3-carbonitrile] | 49 nM
Cn1c(=O)c(C#N)c(N2CCC(c3cccc(NC(=O)c4ccccc4)c3)CC2)c2ccccc21 [Example 76, N-{3-[1-(3-cyano-1-methyl-2-oxo-1,2-dihydroquinolin-4-yl)piperidin-4-yl]phenyl}benzamide] | 50 nM
